Data taken from patent US4230711A (priority 1979, dated 1980).

Key:
[1] = tested on: Erysiphe polygoni; conditions: in vivo
[2] = tested on: Alternaria solani conidia; conditions: in vivo
[3] = tested on: Phytophthora infestans conidia; assay type: in vivo; conditions: @ 250 ppm; tomato (Bonny Best) seedlings sprayed, inoculated one day later; approximately 7 days; relative to untreated check plants
[4] = tested on: Septoria apii; assay type: in vivo; conditions: @ 250 ppm; celery (Utah) plants; approximately 14 days; relative to untreated check plants
[5] = tested on: fungi; conditions: cited from earlier work

Structure (SMILES)	% Control, Bean Powdery Mildew [1] [%]	% Control, Tomato Early Blight [2] [%]	% Control, Tomato Late Blight [3] [%]	% Control, Celery Late Blight [4] [%]	fungicidal activity [5]
CC1(C)C(=O)N(SC(Cl)(Cl)Cl)C(=O)c2ccccc21 [Compound 1, N-(trichloromethylthio)-4,4-dimethyl homophthalimide]	96	33	95	50	
CC1(C)C(=O)NC(=O)c2ccccc21 [Compound 3, 4,4-dimethyl homophthalimide]	0	0	0	0	
O=C1c2ccccc2C(=O)N1SC(Cl)(Cl)Cl [N-(trichloromethylthio)phthalimide]					having fungicidal activity
